Measurements published in US20260327264A1, “PEPTIDE INHIBITORS OF INTERLEUKIN-23 RECEPTOR” (Zealand Pharma A/S, priority 2023, published 2026).
*1 amine or outer side, *2 acyl side, *3 side chain or, on linkers, in order; H or OH if unused. Where a SMILES comes first, the peptide text is derived from it. Bridges are numbered along the chain shown (N, C = ends). [ ]: non-standard residue; d: D form. 2Nal = N[C@@H](Cc1ccc2ccccc2c1)C(=O)O; AEF = NCCOc1ccc(C[C@H](N)C(=O)O)cc1; X1 = O=C(Cc1ccc(CN[*:1])cc1)[*:2]; 3Pal = N[C@@H](Cc1cccnc1)C(=O)O; αMeL = CC(C)C[C@](C)(N)C(=O)O; CH2COCH2 = O=C(C[*:1])C[*:2]; 3Amb = NCc1cccc(C(=O)O)c1; NMeA = CN[C@@H](C)C(=O)O; Dab = NCC[C@H](N)C(=O)O; Aib = CC(C)(N)C(=O)O; βAla = NCCC(=O)O

Tests used:
[1] = tested on: IL-23 mediated STAT3 signalling (DB cells); assay: Functional inhibition of IL-23 mediated STAT3 signalling (phospho-STAT3 Tyr705) in DB cells; assay type: cell-based, human; details: for IC50: Table 3-2, EC80 of hIL-23, read-out: hIL-23 (pSTAT3) antagonist IC50; for hIL-23 (pSTAT3) antagonist % inhibition: Table 3-2, maximal inhibitory response, EC80 of hIL-23
Description: Upon binding of IL-23, the IL-23R forms a heterodimer signalling complex together with IL-12R β1, which through the JAK2/STAT3 pathway promotes phosphorylation of STAT3 to form phospho-STAT3.
For compounds tested in this assay, the response was normalized relative to control values to calculate the IC50 and maximal inhibitory response from a concentration response curve of the compound in presence of a fixed concentration of human IL-23.
The assay procedure was as follows. […] Following preincubation of the DB cells with inhibitor for 15 min in a cell incubator (37° C., 5% CO2), 20 μL of the prepared 3× the EC80 of hIL-23 solution was added to each well and incubated for 90 min in a cell incubator (37° C., 5% CO2). For some wells buffer only or IL-23 only corresponding to the EC80 was added to obtain readouts needed for normalization. To terminate the assay, the plate was spun at 1000 G for 5 min to pellet cells, the supernatant removed using an 8-channel manual pipette, and then added 50 μL/well Complete Lysis Buffer from the MSD STAT3 kit (Cat #K150SVD, Mesoscale) to the cell pellet. To completely lyse cells to release phospho-STAT3 for detection, the plate was shaken for 10 min at room temperature (500 rpm) sealed with aluminium foil and placed at −80° C. for a minimum of 15 min. Detection of the phospho-STAT3 level in the cell lysate from the individual wells was determined using the MSD STAT3 kit (Cat #K150SVD, Mesoscale) and read on a Meso QuickPlex SQ 120 plate reader (Mesoscale).
For data analysis raw data counts from the Meso QuickPlex SQ 120 plate reader were normalized relative to the response by the EC80 of hIL-23 alone (no compound added) and the buffer level.

[2] = target: T1, human IL-23R (Homo sapiens, UniProt Q5VWK5); assay: Binding assay: displacement of fluorophore (TAMRA)-labelled reference compound from human IL-23R (BRET, Nluc-IL23R fusion protein membranes); details: for Emax: read-out: % displacement (hIL-23R binding)
T1 construct: Nanoluc luciferase (Nluc); secretion signal encoded by the plasmid (not specified); expressed in transfected cells; crude membranes used in the assay
T1 sequence (Q5VWK5 22-629): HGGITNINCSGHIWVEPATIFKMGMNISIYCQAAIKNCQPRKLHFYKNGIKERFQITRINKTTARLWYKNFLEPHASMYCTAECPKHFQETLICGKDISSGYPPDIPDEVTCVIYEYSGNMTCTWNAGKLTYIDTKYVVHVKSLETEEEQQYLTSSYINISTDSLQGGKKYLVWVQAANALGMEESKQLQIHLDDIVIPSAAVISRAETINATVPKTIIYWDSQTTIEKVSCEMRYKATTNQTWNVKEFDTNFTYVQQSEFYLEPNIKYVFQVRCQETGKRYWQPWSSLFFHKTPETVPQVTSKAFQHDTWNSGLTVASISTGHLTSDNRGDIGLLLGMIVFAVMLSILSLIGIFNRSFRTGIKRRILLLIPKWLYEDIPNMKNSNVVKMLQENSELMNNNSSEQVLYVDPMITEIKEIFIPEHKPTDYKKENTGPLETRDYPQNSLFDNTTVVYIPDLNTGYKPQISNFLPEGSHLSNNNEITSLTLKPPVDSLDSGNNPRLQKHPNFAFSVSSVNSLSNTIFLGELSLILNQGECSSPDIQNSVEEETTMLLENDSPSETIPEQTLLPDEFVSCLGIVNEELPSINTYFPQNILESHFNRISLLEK

Compound: CC(C)C[C@]1(C)NC(=O)[C@H](Cc2ccc3ccccc3c2)NC(=O)[C@H](Cc2ccc(OCCN)cc2)NC(=O)[C@@H]2CCNC(=O)CC[C@H](NC(=O)[C@H](CO)NC(=O)Cc3ccc(cc3)CNC(=O)CC[C@@H](C(=O)NC[C@@H](N[C@@H](Cc3cccnc3)C(N)=O)C(F)(F)F)NC1=O)C(=O)N[C@@H](Cc1c[nH]c3ccccc13)C(=O)N[C@@H](CCC(N)=O)C(=O)N2 [Compound 16, [4-Aminomethyl-phenylacetyl](1c)*SE(2c)WQ[Dab](2c)[Y(2-aminoethoxy)][2-Nal][2-Me-Leu]E(1c)[{d}Gly-CF3][3-(3-Pyridyl)-Ala]-[NH2]]
- IC50 [1]: 1.4 nM
- hIL-23 (pSTAT3) antagonist % inhibition [1]: 97%

Compound: CC(=O)N[C@@H](CC(=O)O)C(=O)N[C@H]1CCC(=O)NCCCC[C@@H](C(=O)N[C@@H](CCCNC(=N)N)C(N)=O)NC(=O)[C@H](CC(C)C)NC(=O)[C@H](Cc2ccc3ccccc3c2)NC(=O)[C@H](Cc2c[nH]c3ccccc23)NC(=O)[C@@H]2CSCC(=O)CSC[C@H](NC(=O)[C@H](CO)NC1=O)C(=O)N[C@@H](Cc1c[nH]c3ccccc13)C(=O)N[C@@H](CCC(N)=O)C(=O)N2 [Ref 17, [Ac]-DE(1c)SC(2a)WQC(2a)W[2-Nal]LK(1c)R-[NH2], reference compound]
- IC50 [1]: 370 nM

Compound: CC(=O)N[C@H]1CCSC[C@@H](C(=O)N[C@@H](Cc2ccc(OCCN)cc2)C(=O)N[C@@H](Cc2c[nH]c3ccccc23)C(=O)N[C@@](C)(CCCCN)C(=O)N[C@@H](CCC(=O)O)C(=O)N[C@@H](CC(N)=O)C(=O)NCC(N)=O)NC(=O)[C@H](CCC(N)=O)NC(=O)[C@H](Cc2c[nH]c3ccccc23)NC(=O)[C@H]([C@@H](C)O)NC(=O)[C@H](CCC(N)=O)NC1=O [Compound C, [Ac]-[Abu](16i)QTWQC(16i)[Y(2-aminoethoxy)]W[2-Me-Lys]ENG-[NH2], reference compound]
- Emax [2]: 102%

Compound: CC(C)C[C@]1(C)NC(=O)[C@H](Cc2ccc3ccccc3c2)NC(=O)[C@H](Cc2ccc(OCCN)cc2)NC(=O)[C@@H]2CCNC(=O)CC[C@H](NC(=O)[C@H](CO)NC(=O)Cc3ccc(cc3)CNC(=O)CC[C@@H](C(=O)NC[C@H](N[C@@H](Cc3cccnc3)C(N)=O)C(F)(F)F)NC1=O)C(=O)N[C@@H](Cc1c[nH]c3ccccc13)C(=O)N[C@@H](CCC(N)=O)C(=O)N2 [Compound 17, [4-Aminomethyl-phenylacetyl](1c)*SE(2c)WQ[Dab](2c)[Y(2-aminoethoxy)][2-Nal][2-Me-Leu]E(1c)[Gly-CF3][3-(3-Pyridyl)-Ala]-[NH2]]
- IC50 [2]: 1.2 nM
- Emax [2]: 98%

Compound: CNC(=O)[C@H](Cc1cccnc1)NC(=O)[C@H](COC)NC(=O)[C@@H]1CCC(=O)NCc2ccc(cc2)CC(=O)N[C@@H](C)C(=O)N[C@H]2CCC(=O)NCC[C@H](NC(=O)[C@H](CCC(N)=O)NC(=O)[C@H](Cc3c[nH]c4ccccc34)NC2=O)C(=O)N[C@@H](Cc2ccc(N3CCOCC3)cc2)C(=O)N[C@@H](Cc2ccc3ccccc3c2)C(=O)NC(C)(C)C(=O)N1 [Compound 53, [4-aminomethyl-phenylacetyl](1c)*AE(2c)WQ[Dab](2c)[F(4-morpholine)][2Nal][Aib]E(1c)[Ser(OCH3)][3-(3-Pyridyl)-alanyl]-[NHMe]]
- IC50 [2]: 0.23 nM
- Emax [2]: 102%

Compound: CNC(=O)[C@H](Cc1cccnc1)NC(=O)[C@H](CCN)NC(=O)[C@@H]1CCC(=O)NCc2ccc(cc2)CC(=O)N(C)[C@@H](C)C(=O)N[C@H]2CCC(=O)NCC[C@H](NC(=O)[C@H](CCC(N)=O)NC(=O)[C@H](Cc3c[nH]c4ccccc34)NC2=O)C(=O)N[C@@H](Cc2ccc(OCCN)cc2)C(=O)N[C@@H](Cc2ccc3ccccc3c2)C(=O)NC(C)(C)C(=O)N1 [Compound 48, [4-aminomethyl-phenylacetyl(1c)*][N—Me-Ala]E(2c)WQ[Dab](2c)[Y(2-aminoethoxy)][2Nal][Aib]E(1c)[Dab][3-(3-Pyridyl)-alanyl]-[NHMe]] ([X1][NMeA]EWQ[Dab][AEF][2Nal][Aib]E[Dab][3Pal]-NHMe; lactam 3-6, N-10)
- IC50 [2]: 0.01 nM
- Emax [2]: 96%

Compound: CC(C)C[C@]1(C)NC(=O)[C@H](Cc2ccc3ccccc3c2)NC(=O)[C@H](Cc2ccc(OCCN)cc2)NC(=O)[C@@H]2CSCC(=O)CSC[C@H](NC(=O)[C@H](CO)NC(=O)[C@H](Cc3cccnc3)NC(=O)CCNC(=O)CC[C@@H](C(=O)N[C@H](CCCNC(=N)N)C(N)=O)NC1=O)C(=O)N[C@@H](Cc1c[nH]c3ccccc13)C(=O)N[C@@H](CCC(N)=O)C(=O)N2 [Compound 1, [3-Aminopropanoyl](4c)*[3-(3-Pyridyl)-Ala]SC(2a)WQC(2a)[Y(2-aminoethoxy)][2-Nal][2-Me-Leu]E(4c)[{d}R]-[NH2]] ([βAla][3Pal]SCWQC[AEF][2Nal][αMeL]E[dR]-NH2; linker 4-7 via CH2COCH2; lactam N-11)
- Emax [2]: 105%

Compound: CC(C)C[C@]1(C)NC(=O)[C@H](Cc2ccc3ccccc3c2)NC(=O)[C@H](Cc2ccc(OCCN)cc2)NC(=O)[C@@H]2CSCC(=O)CSC[C@H](NC(=O)[C@H](CO)NC(=O)Cc3ccc(cc3)CNC(=O)CC[C@@H](C(=O)N[C@H](CCCNC(=N)N)C(N)=O)NC1=O)C(=O)N[C@@H](Cc1c[nH]c3ccccc13)C(=O)N[C@@H](CCC(N)=O)C(=O)N2 [Ref 80, [4-Aminomethyl-phenylacetyl](1c)*SC(2a)WQC(2a)[Y(2-aminoethoxy)][2-Nal][2-Me-Leu]E(1c)[{d}R]-[NH2], reference compound] ([X1]SCWQC[AEF][2Nal][αMeL]E[dR]-NH2; linker 3-6 via CH2COCH2; lactam N-10)
- IC50 [1]: 11 nM
- hIL-23 (pSTAT3) antagonist % inhibition [1]: 97%

Compound: CC(C)C[C@]1(C)NC(=O)[C@H](Cc2ccc3ccccc3c2)NC(=O)[C@H](Cc2ccc(OCCN)cc2)NC(=O)[C@@H]2CSCC(=O)CSC[C@H](NC(=O)[C@H](CO)NC(=O)c3cccc(c3)CNC(=O)CC[C@@H](C(=O)N[C@@H](CCCNC(=N)N)C(=O)N[C@@H](Cc3cccnc3)C(N)=O)NC1=O)C(=O)N[C@@H](Cc1c[nH]c3ccccc13)C(=O)N[C@@H](CCC(N)=O)C(=O)N2 [Ref 78, [(3-Aminomethyl)benzoyl](1c)*SC(2a)WQC(2a)[Y(2-aminoethoxy)][2-Nal][2-Me-Leu]E(1c)R[3-(3-Pyridyl)-Ala]-[NH2], reference compound] ([3Amb]SCWQC[AEF][2Nal][αMeL]ER[3Pal]-NH2; linker 3-6 via CH2COCH2; lactam N-10)
- IC50 [1]: 0.13 nM
- hIL-23 (pSTAT3) antagonist % inhibition [1]: 100%

Compound: CC(C)C[C@]1(C)NC(=O)[C@H](Cc2ccc3ccccc3c2)NC(=O)[C@H](Cc2ccc(OCCN)cc2)NC(=O)[C@@H]2CSCC(=O)CSC[C@H](NC(=O)[C@H](CO)NC(=O)CCNC(=O)[C@H](Cc3cccnc3)NC(=O)CC[C@@H](C(=O)N[C@H](CCCNC(=N)N)C(N)=O)NC1=O)C(=O)N[C@@H](Cc1c[nH]c3ccccc13)C(=O)N[C@@H](CCC(N)=O)C(=O)N2 [Compound 2, [3-(3-Pyridyl)-Ala](4c)*[3-Aminopropanoy]SC(2a)WQC(2a)[Y(2-aminoethoxy)][2-Nal][2-Me-Leu]E(4c)[{d}R]-[NH2]] ([3Pal][βAla]SCWQC[AEF][2Nal][αMeL]E[dR]-NH2; linker 4-7 via CH2COCH2; lactam N-11)
- Emax [2]: 103%
